{"source": "patent US10829778B2", "about": "“Plants having increased tolerance to herbicides” (BASF SE, priority 2013, dated 2020)", "key": {"[1]": {"tested_on": "transgenic Arabidopsis plants expressing AtHPPD M335Y, P336A, E363Q", "assay": "Greenhouse herbicide spray test, transgenic Arabidopsis plants (T2)", "format": "in vivo, Arabidopsis thaliana", "settings": "two weeks after treatment", "source_text": "(§1) For post emergence treatment, the test plants are first grown to a height of 3 to 15 cm, depending on the plant habit, and only then treated with the herbicides. For this purpose, the test plants are either sown directly and grown in the same containers, or they are first grown separately and transplanted into the test containers a few days prior to treatment.\n(§2) Additionally, T1 and T2 transgenic Arabidopsis plants can be tested for improved tolerance to N-heterocyclyl-arylcarboxamides in a greenhouse studies. Herbicide injury scoring is done 2-3 weeks after treatment and is rated on a scale of 0 to 100%, 0% being no injury and 100% being complete death."}, "[2]": {"tested_on": "transgenic Arabidopsis plants expressing HvHPPD L320H, P321A", "assay": "Greenhouse herbicide spray test, transgenic Arabidopsis plants (T2)", "format": "in vivo, Arabidopsis thaliana", "settings": "for Injury evaluation: P321A, two weeks after treatment", "source_text": "as §1, §2"}, "[3]": {"tested_on": "transgenic Arabidopsis plants expressing AtHPPD M335H, P336A, E363Q", "assay": "Greenhouse herbicide spray test, transgenic Arabidopsis plants (T2)", "format": "in vivo, Arabidopsis thaliana", "settings": "two weeks after treatment", "source_text": "as §1, §2"}, "[4]": {"tested_on": "transgenic Arabidopsis plants expressing HvHPPD L320H", "assay": "Greenhouse herbicide spray test, transgenic Arabidopsis plants (T2)", "format": "in vivo, Arabidopsis thaliana", "settings": "for Injury evaluation: HvHPPD L320H, two weeks after treatment", "source_text": "as §1, §2"}, "[5]": {"tested_on": "non-transgenic Arabidopsis plants (WT)", "assay": "Greenhouse herbicide spray test, Arabidopsis plants (T2)", "format": "in vivo, Arabidopsis thaliana", "settings": "two weeks after treatment", "source_text": "as §1, §2"}, "Synechoccus HPPD": {"tested_on": "Synechoccus HPPD", "assay": "HPPD activity assay, wildtype enzyme", "format": "biochemical, Synechococcus", "settings": "Table 12, normalized to Arabidopsis HPPD", "method": "(§3) HPPD produces homogentisic acid and CO2 from 4-hydroxyphenylpyruvate (4-HPP) and O2. The activity assay for HPPD is based on the analysis of homogentisic acid by reversed phase HPLC.\n(§4) The assay mixture can contain 150 mM potassium phosphate buffer pH 7.0, 50 mM L-ascorbic acid, 100 μM Catalase (Sigma-Aldrich), 1 μM FeSO4 and 0.2 units of purified HPPD enzyme in a total volume of 505 μl. 1 unit is defined as the amount of enzyme that is required to produce 1 nmol of HGA per minute at 20° C.\n(§5) After a preincubation of 30 min the reaction is started by adding 4-HPP to a final concentration of 0.05 mM. The reaction is allowed to proceed for 45 min at room temperature. The reaction is stopped by the addition of 50 μl of 4.5 M phosphoric acid. The sample is filtered using a […] pore size PVDF filtration device.\n(§6) 5 μl of the cleared sample is analyzed on an UPLC HSS T3 column (particle size 1.8 μm, dimensions 2.1×50 mm; Waters) by isocratic elution using 90% 20 mM NaH2PO4 pH 2.2, 10% methanol (v/v).\n(§7) HGA is detected electrochemically at 750 mV (mode: DC; polarity: positive) and quantified by integrating peak areas (Empower software; Waters).\n(§8) Inhibitors are dissolved in DMSO (dimethylsulfoxide) to a concentration of 0.5 mM. From this stock solution serial five-fold dilutions are prepared in DMSO, which are used in the assay. […] IC50 values are calculated using non-linear regression. […]"}, "Picrophilus HPPD": {"tested_on": "Picrophilus HPPD", "assay": "HPPD activity assay, wildtype enzyme", "format": "biochemical, Picrophilus torridus", "settings": "Table 12, normalized to Arabidopsis HPPD", "method": "as §3, §4, §5, §6, §7, §8"}}}
{"compound": "Cc1nonc1NC(=O)c1ccc(S(C)(=O)=O)c(S(C)(=O)=O)c1C", "note": "[Inhibitor 1, 2-methyl-N-(4-methyl-1,2,5-oxadiazol-3-yl)-3,4-bis(methylsulfonyl)benzamide]", "values": [{"measurement": "Injury evaluation", "setting": "[1]; 1.56 g/ha", "result": 12, "unit": "%"}, {"measurement": "Injury evaluation", "setting": "[1]; 3.125 g/ha", "result": 23, "unit": "%"}, {"measurement": "Injury evaluation", "setting": "[1]; 6.25 g/ha", "result": 58, "unit": "%"}, {"measurement": "Injury evaluation", "setting": "[1]; 12.5 g/ha", "result": 52, "unit": "%"}, {"measurement": "increased tolerance versus wild-type plants", "setting": "[2]; P321A plants, highest dose applied", "result": 40, "unit": "fold"}, {"measurement": "Injury evaluation", "setting": "[2]; 1.56 g/ha", "result": 0, "unit": "%"}, {"measurement": "Injury evaluation", "setting": "[2]; 3.125 g/ha", "result": 0, "unit": "%"}, {"measurement": "Injury evaluation", "setting": "[2]; 6.25 g/ha", "result": 2, "unit": "%"}, {"measurement": "Injury evaluation", "setting": "[2]; 12.5 g/ha", "result": 2.5, "unit": "%"}, {"measurement": "Injury evaluation", "setting": "[3]; 1.56 g/ha", "result": 3, "unit": "%"}, {"measurement": "Injury evaluation", "setting": "[3]; 3.125 g/ha", "result": 13, "unit": "%"}, {"measurement": "Injury evaluation", "setting": "[3]; 6.25 g/ha", "result": 42, "unit": "%"}, {"measurement": "Injury evaluation", "setting": "[3]; 12.5 g/ha", "result": 42, "unit": "%"}, {"measurement": "increased tolerance versus wild-type plants", "setting": "[4]; HvHPPD L320H plants, dose of 3.125 g/ha", "result": "~20", "unit": "fold"}, {"measurement": "Injury evaluation", "setting": "[4]; 1.56 g/ha", "result": 0, "unit": "%"}, {"measurement": "Injury evaluation", "setting": "[4]; 3.125 g/ha", "result": 5, "unit": "%"}, {"measurement": "Injury evaluation", "setting": "[4]; 6.25 g/ha", "result": 20, "unit": "%"}, {"measurement": "Injury evaluation", "setting": "[4]; 12.5 g/ha", "result": 27, "unit": "%"}, {"measurement": "Injury evaluation", "setting": "[5]; WT (control of AtHPPD events), 1.56 g/ha", "result": 92, "unit": "%"}, {"measurement": "Injury evaluation", "setting": "[5]; WT (control of AtHPPD events), 3.125 g/ha", "result": 91, "unit": "%"}, {"measurement": "Injury evaluation", "setting": "[5]; WT (control of AtHPPD events), 6.25 g/ha", "result": 97, "unit": "%"}, {"measurement": "Injury evaluation", "setting": "[5]; WT (control of AtHPPD events), 12.5 g/ha", "result": 97, "unit": "%"}, {"measurement": "Injury evaluation", "setting": "[5]; WT (control of HvHPPD events), 1.56 g/ha", "result": 98, "unit": "%"}, {"measurement": "Injury evaluation", "setting": "[5]; WT (control of HvHPPD events), 3.125 g/ha", "result": 98, "unit": "%"}, {"measurement": "Injury evaluation", "setting": "[5]; WT (control of HvHPPD events), 6.25 g/ha", "result": 100, "unit": "%"}, {"measurement": "Injury evaluation", "setting": "[5]; WT (control of HvHPPD events), 12.5 g/ha", "result": 100, "unit": "%"}, {"measurement": "Normalized tolerance index TI Inhibitor 1", "setting": "Synechoccus HPPD", "result": 69.9}, {"measurement": "Normalized tolerance index TI Inhibitor 1", "setting": "Picrophilus HPPD", "result": 5.4}]}
